This note sets out measurements from patent US8232299B2, “Phthalimide derivatives that influence cellular vesicular systems, pharmaceutical compositions, and use thereof” (Avidin Kft., priority 2007, dated 2012).

The test system of data set [1] is human leukemia cells (K562). As to the kind of experiment: leukemia survival model, K562 cells i.v. The following applies: 100 mg/kg p.o., once a day five days per week for 3 weeks from day 4; FIG. 10. It counts as in vivo, CB17/scid mice. On the procedure:
2×10^6 human leukemia cells (K562) from in vitro cultures were injected intravenously (i.v.) into partially narcotized (diethylether narcosis) adult male CB17/scid mice, born with immunodeficiency. After tumor cell inoculation animals were randomly assigned into two groups and their ears were marked. From the 4th day after the tumor cell inoculation mice were treated once a day five days per week for 3 weeks with compound 9a (100 mg/kg), per os (p.o.) by gavage. Control animals were treated with appropriate dilution of the carrier (DMSO) similarly to the treated group with similar frequency. Body weight changes were monitored once a week for each animal according to the ear marks. Evaluation of the effect of the compound was based on the survival of the animals. Results are shown on FIG. 10.

The test system of data set [2] is RVH human melanoma cell line. As to the kind of experiment: cytotoxic effect on melanoma cell line, MTS assay, 48 hours. The format is cell-based. The following applies: 48 hours treatment, FIG. 4; for effect on RVH melanoma cells: even at 100 μM concentration. On the procedure: RVH human melanoma cell line was cultured in Minimum Essential Medium Eagle (Sigma, St. Louis, Mo., USA), Na-piruvate, Glutamine, Non-essential amino acids, penicillin (50 IU/ml)-streptomycin ([…]), 10% fetal bovine serum at 37° C., in 5% CO2. Cells were trypsinized with trypsin/EDTA (Sigma-Aldrich, St. Louis, Mo.) on every second day and were passed into 60 or 100 mm plates. When the culture reached the required cell number (approx. 10^6) for the planned experiment 50.00 cell/well was plated into 24 well plates (Costar® 24 Well TC-Treated Microplates) and left overnight to adhere to the bottom of the well. Addition of the substance was performed the following way: next day the culture media was drawn from the adhered cells and media comprising compounds of the present invention in appropriate concentration and well mixed therein was pipetted (2 ml/well) onto the cells. The substance to be examined was diluted in 100% DMSO, this way an amount of DMSO corresponding to the highest concentration of the substance in a given assay were measured in the media of the control wells. After 48 hours of treatment live cells were detected by CellTiter® 96 Aqueous Non-radioactive Cell Proliferation Assay (Promega, Madison, Wis., USA) to determine the number of live cells in the treated and in the control samples.
MTS is converted to formazane in the living cells, which product is dissolved in the media, and its quantity/absorbance can be measured at 490 nm. […] Then, for the determination of the ratio of live cells 20 μl MTS and 1 μl PMS are added to 100 μl media. The enzyme reaction occurs at incubation at 37° C., 5% CO2 for 1 to 4 hours. Formazane produced by the cells is read on ELISA plate reader, from which the number of living cells can be obtained indirectly. Since the inventors performed the experiments in 24 well plates with 50.000 cell/well, the protocol had to be modified. After treatment of the cells for an appropriate time (type of compound, different concentrations), the incubation media (2 ml) containing the examined substance was removed, then 400 μl media containing reagents in the same concentration as given above (333.3 μl media, 66.6 μl MTS, and 3.3 μl PMS per well) was pipetted to the cells. To be able to use ELISA plate reader (Multiskan R C, Thermo Labsystems, Franklin, Mass., USA) 400 μl sample from each single well of the 24 well plate was pipetted into four wells of a 96 well plate (Micromethod plates 96 wells flat form) in 100 μl aliquots. That also helped to eliminate possible errors due to inconsistent pipetting. On each 24 well plate 4 wells were control samples. From these 3 times 100 μl was pipetted onto the 96 well plates, so, altogether 12 controls were provided on each 96 well plate. The remaining 4 wells were for background measurements with 100 μl media containing MTS and PMS as described above.

The test system of data set [3] is MCF7 (Human breast adenocarcinoma). Kind of data set: cytotoxic effect on breast carcinoma cell line, MTS test, 24 hours. The format is cell-based. Conditions: 24 hours incubation. On the procedure: (§1) In these experiments HepG2 (human hepatocellular carcinoma) and MCF7 (Human breast adenocarcinoma) cells were used. They were cultured in the following media: For HepG2 Dulbecco's Modified Eagle Medium (D-MEM) (high glucose) (Gibco BRL, Carlsbad, Calif., USA), penicillin (50 IU/ml)-streptomycin ([…]), 10% fetal bovine serum; for MCF7 (Human breast adenocarcinoma) 1:1 mixture of Dulbecco's Modified Eagle Medium (D-MEM) (high glucose) (Gibco BRL, Carlsbad, Calif., USA) and Nutrient Mixture F-12 Ham (Sigma, St. Louis, Mo., USA), penicillin (50 IU/ml)-streptomycin ([…]), 10% fetal bovine serum. Experiments were performed as described in Example 9. with the difference that the incubation time was 24 hours in this case. After the incubation period MTS test (3-(4,5-dimethylthiazol-2-yl)-5-(3-carboxymethoxyphenyl)-2-(4-sulfophenyl)-2H-tetrazolium) (Promega, Madison, Wis., USA) was performed as described above.

The test system of data set [4] is HepG2 (human hepatocellular carcinoma). As to the kind of experiment: cytotoxic effect on hepatocellular carcinoma cell line, MTS test, 24 hours. It counts as cell-based. Conditions: 24 hours incubation. On the procedure:
as §1

The subject of another data set is Mycobacterium avis. Kind of data set: inhibition of Mycobacterium avis in THP-1 macrophage culture. The format is cell-based. Conditions: 36 mg/l, THP-1 human macrophage cells; FIG. 11. On the procedure:
In this experiment the effects of compound 3a were analyzed: the inhibition of Mycobacterium avis in macrophage culture was investigated. Human macrophage cells (THP-1) were infected by Mycobacterium avis under in vitro conditions, subsequently treated (compound 3a: 36 mg/l) and untreated cells were harvested after different periods of time and the number of the living Mycobacterium avis bacteria were determined.

The subject of data set [5] is RAW.264.7 matured mice macrophages. Kind of data set: MTS test of vitality / metabolic activity of the macrophages. The format is cell-based. On the procedure: In our experiments we investigated the early TNFα secretion of RAW.264.7 matured mice macrophages. This cell line stores large amount of preformed TNFα. […] Culture supernatant was collected and TNFα content was determined by R&D Duoset ELISA kit (detection limit<62.5 pg/ml). […] So the reduced TNFα level was due to inhibition of the release of preformed TNFα and not due to dying of the cells.
Effects of compound 3a and compound 3b on TNFα secretion and on NF-kappaB activation could have been based on cytotoxicity as well. To exclude that, we determined the metabolic activity of the cells, which is proportional to the cell number, by MTS test 8 hours after the treatment.

The test system of the next data set is TNFα. Kind of data set: late phase (transcriptionally induced) TNFα secretion of macrophages, ELISA. The format is cell-based, mice. Conditions: preformed TNFα washed away after 4 hours, TNFα of next 4 hours; FIG. 3. On the procedure: For the detection of late phase TNFα secretion the preformed TNFα, released after LPS induction of the macrophages, was washed away after 4 hours, and the amount of TNFα produced during the next 4 hours was determined by ELISA test. […] Results are depicted in FIG. 3.

Another data set concerns Rab GTPase proteins. Kind of data set: affinity chromatography of MCF-7 protein fraction with LC-MS/MS. The format is binding, human. The following applies: compound linked to Sepharose beads, 2 M NaCl eluate. The procedure: By using affinity chromatography we investigated which are the proteins that bind compound 5b of the invention. Compound 5b was linked to cyanobromide activated Sepharose (Amersham-Pharmacia, Sepharose 4B) beads in 6:4 DMF:water mixture for 16 hours at room temperature. 1 ml of the beads was washed with 50 ml 6:4 DMF:water mixture, and then with 50 ml 70% ethanol, then with PBS (0.01 M phosphate buffer, 0.0027 M KCl, 0.137 M NaCl, pH: 7.4). After washing the column 5 ml protein fraction of human MCF-7 breast carcinoma cells (10 million cells homogenized with Complete, Protease Inhibitor Cocktail Tablets, Roche Diagnostics GmbH) were applied onto the column. The column was washed with 20 ml 0.2 M NaCl—PBS solution, then with 15 ml 0.5 M NaCl—PBS solution and with 15 ml 0.8 M NaCl—PBS solution, then it was eluted by 2 ml 2 M NaCl—PBS. The eluate was analyzed by mass spectrometry (LC-MS/MS) to determine the proteins binding to compound 5b.
Mass spectrometry analysis was performed according to the protocol published at http://donatello.ucsf.edu/ingel.html at the time of drafting the patent application.
For the LC-MS/MS analysis 5 μl sample was injected. For the LC precolumn trap was applied: 5 min 20 μl 0.1% trifluoroacetic acid/water, then gradient elution for MS/MS analysis. Columns: Zorbax 300SB-C18, 5 μm, 5×0.3 mm; Zorbax 300SB-C18, 3.5 μm, 150×0.075 mm. […]

Setting [6] is: already at 20 and 50 μM concentrations.
The mark [7] stands for this setting: in the concentration range tested.

`CC(C)c1cccc(C(C)C)c1N1C(=O)c2c(F)c(F)c(F)c(NC3CCCC3)c2C1=O` [Compound 9a, 2-(2,6-diisopropylphenyl)-4-(cyclopentylamino)-5,6,7-trifluoroisoindoline-1,3-dione]: the “survival of the animals” value in data set [1] is “significant increase of the survival”.
Regarding `CC(C)c1cccc(C(C)C)c1N1C(=O)c2c(F)c(F)c(F)c(NCc3cccnc3)c2C1=O` [Compound 4a], the “inhibition of RVH melanoma cells (cytotoxic effect)” value (shortened to “inhibition of RVH melanoma cells”) in data set [2] was “strongest inhibition”. Also, the “inhibition of MCF7 cells (cytotoxic effect)” value (“inhibition of MCF7 cells” below) in data set [3] is “strongest inhibition”. Further, the “inhibition of HepG2 cells (cytotoxic effect)” value (from here on “inhibition of HepG2 cells”) in data set [4] is given as “strongest inhibition”.
For `CC(C)c1cccc(C(C)C)c1N1C(=O)c2c(F)c(F)c(F)c(NCCN)c2C1=O` [Compound 5a, 2-(2,6-diisopropylphenyl)-4-(2-amino-ethylamino)-5,6,7-trifluoroisoindole-1,3-dione], the “inhibition of RVH melanoma cells” value in data set [2] is “strongest inhibition”. Besides, the “effect on MCF7 cells” value in data set [3] (setting [6]) is “strong effect”. The “effect on HepG2 cells” value in data set [4] (setting [7]) is “weak effect”.
For the molecule `CCNc1c(F)c(F)c(F)c2c1C(=O)N(c1c(C(C)C)cccc1C(C)C)C2=O` [Compound 3a, 2-(2,6-diisopropylphenyl)-4-(ethylamino)-5,6,7-trifluoroisoindole-1,3-dione], in data set [2], the “effect on RVH melanoma cells” value was “weak effect”. For the same molecule, the “number of divided (living) bacteria versus untreated group” value with Mycobacterium avis is reported as “significantly smaller”. Moreover, the “effect on MCF7 cells” value in data set [3] (setting [7]) was “weak effect”. The “vitality of the cells (MTS test)” value in data set [5] (3 hours after the stimulation with LPS) is “no cell death was detected”. Further, the “metabolic activity of the cells (MTS test)” value in data set [5] (8 hours after the treatment) was “not found to be toxic”. The “effect on HepG2 cells” value in data set [4] (setting [7]) was “weak effect”. Further, the “late TNFα secretion of macrophages” value with TNFα is “inhibited late TNFα secretion of macrophages in a concentration dependent way”.
Consider `CC(C)c1cccc(C(C)C)c1N1C(=O)c2c(F)c(F)c(F)c(NCCCN3CCOCC3)c2C1=O` [Compound 7a, 2-(2,6-diisopropylphenyl)-4-(3-morpholino-4-yl-propylamino)-5,6,7-trifluoroisoindole-1,3-dione], for which the “inhibition of MCF7 cells” value in data set [3] was “strongest inhibition”. Moreover, the “inhibition of HepG2 cells” value in data set [4] is recorded as “strongest inhibition”.
Regarding `CC(C)c1cccc(C(C)C)c1N1C(=O)c2c(F)c(F)c(NCCCN3CCOCC3)c(F)c2C1=O` [Compound 7b, 2-(2,6-diisopropylphenyl)-5-(3-morpholino-4-yl-propylamino)-4,6,7-trifluoroisoindole-1,3-dione], the “inhibition of RVH melanoma cells” value in data set [2] is reported as “strongest inhibition”. In data set [3] (setting [6]), the “effect on MCF7 cells” value is given as “strong effect”. In addition, the “inhibition of HepG2 cells” value in data set [4] is “strongest inhibition”. Moreover, in data set [4] (setting [6]), the “effect on HepG2 cells” value is “strong effect”.
For `CC(C)c1cccc(C(C)C)c1N1C(=O)c2c(F)c(F)c(NCCN)c(F)c2C1=O` [Compound 5b, 2-(2,6-diisopropylphenyl)-5-(2-amino-ethylamino)-4,6,7-trifluoroisoindole-1,3-dione], in data set [2], the “effect on RVH melanoma cells” value is listed as “weak effect”. Further, the “proteins binding to the compound” value with Rab GTPase proteins is reported as “interactions with Rab GTPase proteins were identified”.
As to `CC(C)c1cccc(C(C)C)c1N1C(=O)c2c(F)c(F)c(F)c(NCC(F)(F)F)c2C1=O` [Compound 6a, 2-(2,6-diisopropylphenyl)-4,5,6-trifluoro-7-(2,2,2-trifluoroethylamino)isoindole-1,3-dione], the “inhibition of RVH melanoma cells” value in data set [2] is reported as “strongest inhibition”. The “inhibition of MCF7 cells” value in data set [3] is “strongest inhibition”. Besides, the “inhibition of HepG2 cells” value in data set [4] is given as “strongest inhibition”.
As for `CC(C)c1cccc(C(C)C)c1N1C(=O)c2c(F)c(F)c(NCc3cccnc3)c(F)c2C1=O` [Compound 4b], the “inhibition of RVH melanoma cells” value in data set [2] is given as “strongest inhibition”. Also, the “effect on MCF7 cells” value in data set [3] (setting [6]) is given as “strong effect”. For the same molecule, the “effect on HepG2 cells” value in data set [4] (setting [6]) was “strong effect”.
